These results are taken from PubChem BioAssay (NCI).

The experiment concerns P388 leukemia. Description: NCI tumour cell line growth inhibition, 48 h.

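Following 48 hours of exposure in 96-well plates, responses at five concentrations were used to interpolate endpoints linearly. TGI is the concentration that stops growth completely.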

Molecule `CCSc1nc(COC(=O)NC)c(COC(=O)NC)n1C` returned a TGI above 100 µM.
